Measured values from patent US8119630B2 (Arrow Therapeutics Limited, priority 2002, dated 2012).
Read-outs that look alike come from different tables or passages of the source.

Key:
RSV = assay: XTT assay, RSV-infected Vero cells; type: cell-based, Respiratory Syncytial Virus (RSV); details: Vero cells infected with RSV, m.o.i.≈0.2, 6 days at 33° C.
Method: Examples 1 to 74 and 83 to 124 were tested using the following protocol.
(§1) The inner 60 wells of 96 well tissue culture plates were seeded with Vero cells at 3×10^4 cells/well (1×10^4 cells/well for toxicity studies) in 100 or 150 μl of medium and incubated at 37° C. overnight or until nearing confluency. For primary screen, 25 μl compounds were added directly to 100 μl medium in single wells to duplicate plates. A third plate was prepared for simultaneous toxicity investigation.
(§2) For follow-up investigation, 70 μl of compound in duplicate wells were added directly to culture medium at 3.2× final concentration and ½ log serially diluted down columns of plate. A duplicate plate was prepared for simultaneous toxicity investigation.
Cells were infected with 25 μl RSV to give m.o.i.≈0.2. Some 100 μl of sterile distilled water were added to the outer wells of the plate and incubated at 33° C. for 6 days. Some 0.25 μl/ml PMS were added to stock XTT solution, final conc. […]. Then 25 μl warmed XTT/PMS solution were added to each well and incubated for 5 hours at 37° C. Plates were shaken (DynaTech Vari-Shaker) vigorously for 10 mins and allowed to cool for 15 mins before sealing. Absorbance at 450 nm was measured and data analysed using Microsoft Excel software.
Maximum OD450nm reading (uninfected, untreated control cells) corresponded to 100% inhibition. Minimum OD450nm readings (infected control cells) corresponded to 0% inhibition. Log 10 concentration was plotted against OD450nm and IC50 (Table 1) values were calculated from either reading 50% value from graph or using regression analysis.

Vero cells = assay: Simultaneous toxicity investigation (XTT), Vero cells; type: cell-based; parameters: unit not given here; details: for TC50 (2d): Table 2, Examples 83 to 124, 2d; for TC50 (6d): Table 2, Examples 83 to 124, 6d
Method: as §1, §2
Cells were infected with 25 μl RSV to give m.o.i.≈0.2. […] Some 0.25 μl/ml PMS were added to stock XTT solution, final conc. […]. Then 25 μl warmed XTT/PMS solution were added to each well and incubated for 5 hours at 37° C. Plates were shaken (DynaTech Vari-Shaker) vigorously for 10 mins and allowed to cool for 15 mins before sealing. Absorbance at 450 nm was measured and data analysed using Microsoft Excel software.

[1] = human respiratory syncytial virus, Vero, 144 h, read-out: XTT IC50 (uM), Table 2, Examples 83 to 124
[2] = Table 2, Examples 83 to 124, read-out: XTT IC50
[3] = human respiratory syncytial virus, Vero, 144 h, read-out: XTT IC50 (uM), Table 1

Molecule | IC50 (RSV; [1]) | TC50 (2d) (Vero cells) | TC50 (6d) (Vero cells) | IC50 (RSV; [2]) | IC50 (RSV; [3])
O=C(Nc1ccc(OC(F)(F)F)cc1)NC1N=C(c2ccccc2)c2ccccc2NC1=O (centres unmarked) [Example 116, 1-(2-Oxo-5-phenyl-2,3-dihydro-1H-benzo[e][1,4]diazepin-3-yl)-3-(4-trifluoromethoxy-phenyl)-urea] | 2 µM | 20 | 20 |  | 
O=C(Nc1ccc([N+](=O)[O-])cc1)NC1N=C(c2ccccc2)c2ccccc2NC1=O (centres unmarked) [Example 122, 1-(4-Nitro-phenyl)-3-(2-oxo-5-phenyl-2,3-dihydro-1H-benzo[e][1,4]diazepin-3-yl)-urea] | 0.4 µM | 60 | 20 |  | 
COc1cc([N+](=O)[O-])ccc1C(=O)NC1N=C(c2ccccc2)c2ccccc2NC1=O (centres unmarked) [Example 93, 2-Methoxy-4-nitro-N-(2-oxo-5-phenyl-2,3-dihydro-1H-benzo[e][1,4]diazepin-3-yl)-benzamide] | < 0.3 µM | 100 | >100 |  | 
COc1ccc(C(=O)NC2N=C(c3ccccc3)c3ccccc3NC2=O)c(OC)c1 (centres unmarked) [Example 107, 2,4-Dimethoxy-N-(2-oxo-5-phenyl-2,3-dihydro-1H-benzo[e][1,4]diazepin-3-yl)-benzamide] | < 0.3 µM | 60 | 60 |  | 
O=C(NCc1ccccc1F)NC1N=C(c2ccccc2)c2ccccc2NC1=O (centres unmarked) [Example 84, 1-(2-Fluoro-benzyl)-3-(2-oxo-5-phenyl-2,3-dihydro-1H-benzo[e][1,4]diazepin-3-yl)-urea] | 2 µM | >100 | >100 |  | 
COc1cccc(C2=NC(NC(=O)c3ccccc3OC)C(=O)Nc3ccccc32)c1 (centres unmarked) [Example 109, 2-Methoxy-N-[5-(3-methoxy-phenyl)-2-oxo-2,3-dihydro-1H-benzo[e][1,4]diazepin-3-yl]-benzamide] | 2 µM | 50 | 100 |  | 
Cc1cccc(C)c1NC(=O)NC1N=C(c2ccccc2)c2ccccc2NC1=O (centres unmarked) [Example 120, 1-(2,6-Dimethyl-phenyl)-3-(2-oxo-5-phenyl-2,3-dihydro-1H-benzo[e][1,4]diazepin-3-yl)-urea] | 6 µM | >100 | 60 |  | 
O=C(Nc1ccc(Br)cc1C(F)(F)F)NC1N=C(c2ccccc2)c2ccccc2NC1=O (centres unmarked) [Example 117, 1-(4-Bromo-2-trifluoromethyl-phenyl)-3-(2-oxo-5-phenyl-2,3-dihydro-1H-benzo[e][1,4]diazepin-3-yl)-urea] | 6 µM | 60 | 100 |  | 
COc1ccccc1C(=O)NC1N=C(c2ccccc2)c2ccc(C)cc2NC1=O (centres unmarked) [Example 111, 2-Methoxy-N-(8-methyl-2-oxo-5-phenyl-2,3-dihydro-1H-benzo[e][1,4]diazepin-3-yl)-benzamide] | 3 µM | >100 | >100 |  | 
COc1cccc(C(=O)NC2N=C(c3ccccc3)c3ccccc3NC2=O)c1[N+](=O)[O-] (centres unmarked) [Example 90, 3-Methoxy-2-nitro-N-(2-oxo-5-phenyl-2,3-dihydro-1H-benzo[e][1,4]diazepin-3-yl)-benzamide] | 0.5 µM | 100 | 100 |  | 
COc1ccc(C(=O)NC2N=C(c3cccc(C(F)(F)F)c3)c3ccccc3NC2=O)cc1 (centres unmarked) [Example 105] |  | >100 | >100 | 9 µM | 
N-[5-(3-Methoxy-phenyl)-2-oxo-5-phenyl-2,3-dihydro-1H-benzo[e][1,4]diazepin-3-yl]nitro-benzamide [Example 110] |  | >100 | >100 | 5 µM | 
O=C(Nc1cccc(Cl)c1Cl)NC1N=C(c2ccccc2)c2ccccc2NC1=O (centres unmarked) [Example 119, 1-(2,3-Dichloro-phenyl)-3-(2-oxo-5-phenyl-2,3-dihydro-1H-benzo[e][1,4]diazepin-3-yl)-urea] | 2 µM | >100 | 30 |  | 
O=C(NCc1ccc(Br)cc1)NC1N=C(c2ccccc2)c2ccccc2NC1=O (centres unmarked) [Example 118, 1-(4-Bromo-benzyl)-3-(2-oxo-5-phenyl-2,3-dihydro-1H-benzo[e][1,4]diazepin-3-yl)-urea] | 2 µM | >100 | 100 |  | 
O=C(NC1N=C(c2ccccc2)c2ccccc2NC1=O)OCc1ccccc1 (centres unmarked) [Example 114, (2-Oxo-5-phenyl-2,3-dihydro-1H-benzo[e][1,4]diazepin-3-yl)-carbamic acid benzyl ester] | 5 µM | >100 | 60 |  | 
COc1ccc(C(=O)NC2N=C(c3ccccc3)c3ccccc3NC2=O)cc1[N+](=O)[O-] (centres unmarked) [Example 89, 4-Methoxy-3-nitro-N-(2-oxo-5-phenyl-2,3-dihydro-1H-benzo[e][1,4]diazepin-3-yl)benzamide] | 0.8 µM | >100 | >100 |  | 
COc1ccc([N+](=O)[O-])c(C(=O)NC2N=C(c3ccccc3)c3ccccc3NC2=O)c1 (centres unmarked) [Example 94, 5-Methoxy-2-nitro-N-(2-oxo-5-phenyl-2,3-dihydro-1H-benzo[e][1,4]diazepin-3-yl)-benzamide] | 1.5 µM | >100 | >100 |  | 
COc1cc(Cl)ccc1C(=O)NC1N=C(c2ccccc2)c2ccccc2NC1=O (centres unmarked) [Example 88, 4-Chloro-2-methoxy-N-(2-oxo-5-phenyl-2,3-dihydro-1H-benzo[e][1,4]diazepin-3-yl)-benzamide] | 0.3 µM | 100 | 40 |  | 
COc1ccc(CNC(=O)NC2N=C(c3ccccc3)c3ccccc3NC2=O)cc1 (centres unmarked) [Example 85, 1-(4-Methoxy-benzyl)-3-(2-oxo-5-phenyl-2,3-dihydro-1H-benzo[e][1,4]diazepin-3-yl)-urea] | 4 µM | >100 | >100 |  | 
COc1ccc(Cl)cc1C(=O)NC1N=C(c2ccccc2)c2ccccc2NC1=O (centres unmarked) [Example 91, 5-chloro-2-methoxy-N-(2-oxo-5-phenyl-2,3-dihydro-1H-benzo[e][1,4]diazepin-3-yl)benzamide] | 0.3 µM | 100 | 100 |  | 
Cc1cc(C)cc(NC(=O)NC2N=C(c3ccccc3)c3ccccc3NC2=O)c1 (centres unmarked) [Example 115, 1-(3,5-Dimethyl-phenyl)-3-(2-oxo-5-phenyl-2,3-dihydro-1H-benzo[e][1,4]diazepin-3-yl)-urea] | 1.5 µM | >100 | 60 |  | 
COc1ccccc1C(=O)NC1N=C(c2cccc(C(F)(F)F)c2)c2ccccc2NC1=O (centres unmarked) [Example 104, 2-Methoxy-N-[2-oxo-5-(3-trifluoromethyl-phenyl)-2,3-dihydro-1H-benzo[e][1,4]diazepin-3-yl]-benzamide] | 5 µM | >100 | >100 |  | 
O=C1Nc2ccccc2C(c2ccccc2)=NC1NS(=O)(=O)c1ccccc1Br (centres unmarked) [Example 38, 2-Bromo-N-(2-oxo-5-phenyl-2,3-dihydro-1H-benzo[e][1,4]diazepin-3-yl)-benzenesulfonamide] |  |  |  |  | 6 µM
O=C(NC1N=C(c2ccccc2)c2ccccc2NC1=O)c1csc2ccccc12 (centres unmarked) [Example 28, Benzo[b]thiophene-3-carboxylic acid (2-oxo-5-phenyl-2,3-dihydro-1H-benzo[e][1,4]diazepin-3-yl)-amide] |  |  |  |  | 5 µM
